These results are taken from ChEMBL document CHEMBL1146994, “Advances toward new antidepressants beyond SSRIs: 1-aryloxy-3-piperidinylpropan-2-ols with dual 5-HT1A receptor antagonism/SSRI activities. Part 5” (Bioorg Med Chem Lett, 2006).

The target of experiment [1] is Sodium-dependent serotonin transporter (Rattus norvegicus) (UniProt P31652). Briefly: Receptor occupancy ex vivo by inhibition of [3H]paroxetine binding to 5HT reuptake site in Sprague-Dawley rat frontal cortex tissue at 30 mg/kg, po relative to control. In kind it is functional, organism-based. On the set-up: dose 30 mg/kg.
Sequence of Sodium-dependent serotonin transporter (Rattus norvegicus) (P31652 whole entry): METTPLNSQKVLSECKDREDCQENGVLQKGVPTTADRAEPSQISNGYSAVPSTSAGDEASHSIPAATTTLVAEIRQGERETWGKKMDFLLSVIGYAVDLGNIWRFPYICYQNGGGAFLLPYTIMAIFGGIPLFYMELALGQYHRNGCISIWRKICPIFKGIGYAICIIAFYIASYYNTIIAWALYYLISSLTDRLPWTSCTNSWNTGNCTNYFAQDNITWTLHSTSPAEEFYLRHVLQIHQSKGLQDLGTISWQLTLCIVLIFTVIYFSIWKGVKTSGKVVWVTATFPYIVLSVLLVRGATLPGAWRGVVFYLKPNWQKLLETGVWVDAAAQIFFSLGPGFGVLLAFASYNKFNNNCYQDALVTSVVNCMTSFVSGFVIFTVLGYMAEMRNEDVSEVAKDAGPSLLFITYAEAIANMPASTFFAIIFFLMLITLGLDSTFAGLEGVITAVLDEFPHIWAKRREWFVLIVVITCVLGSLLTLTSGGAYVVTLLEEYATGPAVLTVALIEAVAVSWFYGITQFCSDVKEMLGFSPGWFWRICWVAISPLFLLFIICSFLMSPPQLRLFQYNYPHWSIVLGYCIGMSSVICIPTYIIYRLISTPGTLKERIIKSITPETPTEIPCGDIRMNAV
Experiment [2] concerns Rattus norvegicus. Briefly: Increase in 5HT level in Sprague-Dawley rat hypothalamus by microdialysis at 10 mg/kg, po (basal value set at 100%). The experiment is classed as functional.
Experiment [3] concerns the target T1, 5-hydroxytryptamine receptor 1A (Rattus norvegicus) (UniProt P19327).
T1 sequence (whole entry): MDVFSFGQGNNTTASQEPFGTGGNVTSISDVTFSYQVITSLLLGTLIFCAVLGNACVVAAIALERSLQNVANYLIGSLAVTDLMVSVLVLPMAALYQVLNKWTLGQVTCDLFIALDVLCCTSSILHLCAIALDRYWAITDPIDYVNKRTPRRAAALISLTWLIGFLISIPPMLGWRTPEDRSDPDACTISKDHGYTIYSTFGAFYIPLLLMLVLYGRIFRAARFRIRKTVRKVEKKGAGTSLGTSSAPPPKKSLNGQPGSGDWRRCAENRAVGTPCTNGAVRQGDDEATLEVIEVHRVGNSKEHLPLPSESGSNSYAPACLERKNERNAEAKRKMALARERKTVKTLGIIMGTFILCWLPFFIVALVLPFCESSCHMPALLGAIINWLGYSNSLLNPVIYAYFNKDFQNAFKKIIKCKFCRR
Briefly: Receptor occupancy ex vivo by inhibition of [3H]8-OH-DPAT binding to 5HT1A receptor in Sprague-Dawley rat frontal cortex tissue at 30 mg/kg, po relative to control. More on the design: dose 30 mg/kg. The experiment is classed as functional, organism-based.

In experiment [4] the target is Sodium-dependent serotonin transporter (Homo sapiens, UniProt P31645). The experiment can be described thus: Displacement of [3H]paroxetine from 5HT reuptake site. On the technique in general: Loss of bound radioactivity is the signal in a displacement assay; it reports binding, not function.
Sequence of Sodium-dependent serotonin transporter (P31645 whole entry): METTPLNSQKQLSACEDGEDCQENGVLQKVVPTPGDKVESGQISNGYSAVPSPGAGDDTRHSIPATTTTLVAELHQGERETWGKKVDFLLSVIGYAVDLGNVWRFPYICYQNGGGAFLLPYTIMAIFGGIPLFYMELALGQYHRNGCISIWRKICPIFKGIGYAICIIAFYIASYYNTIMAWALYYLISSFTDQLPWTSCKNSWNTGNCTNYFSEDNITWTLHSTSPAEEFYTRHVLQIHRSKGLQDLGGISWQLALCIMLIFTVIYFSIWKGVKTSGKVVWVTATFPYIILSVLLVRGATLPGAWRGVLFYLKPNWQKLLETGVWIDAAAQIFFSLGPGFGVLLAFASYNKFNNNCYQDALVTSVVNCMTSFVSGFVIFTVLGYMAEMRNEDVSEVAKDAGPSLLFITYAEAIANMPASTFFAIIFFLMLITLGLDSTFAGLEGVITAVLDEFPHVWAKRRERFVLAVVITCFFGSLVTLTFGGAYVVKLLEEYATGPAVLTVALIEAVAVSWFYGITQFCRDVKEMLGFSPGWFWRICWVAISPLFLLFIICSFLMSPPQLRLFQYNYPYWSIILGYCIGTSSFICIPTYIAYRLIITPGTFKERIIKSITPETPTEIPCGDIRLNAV
Experiment [5] concerns Rattus norvegicus. Briefly: Increase in 5HT level in Sprague-Dawley rat hypothalamus by microdialysis at 30 mg/kg, po (basal value set at 100%). The experiment is classed as functional.
The subject of experiment [6] is Rattus norvegicus. The experiment can be described thus: Ability to block 8-OH-DPAT-induced increase of corticosterone in po dosed rat serum after 1 hr. In kind it is functional.
The test system of experiment [7] is Rattus norvegicus. Briefly: Ability to block PCA-induced depletion of 5HT concentration in po dosed rat brain after 2 hrs. The experiment is classed as functional.
In experiment [8] the test system is Rattus norvegicus. The experiment can be described thus: Reduction of serotonergic neuron level in dorsal raphe nucleus of anesthetized rat after 3 days of sub-chronic administration at 10 mg/kg/day. The experiment is classed as functional, organism-based.
Experiment [9] deals with Rattus norvegicus. The experiment can be described thus: Increase in 5HT level in Sprague-Dawley rat hypothalamus by microdialysis at 10 mg/kg, ip (basal value set at 100%). The experiment is classed as functional. To be noted: route intraperitoneal.
The test system of experiment [10] is Rattus norvegicus. Briefly: Ability to block PCA-induced depletion of 5HT concentration in sc dosed rat brain after 2 hrs. In kind it is functional.
Experiment [11] has as its system Rattus norvegicus. Briefly: Ability to block 8-OH-DPAT-induced increase of corticosterone in sc dosed rat serum after 1 hr. In kind it is functional.
Experiment [12] has as its system Rattus norvegicus. The experiment can be described thus: Increase in 5HT level in Sprague-Dawley rat hypothalamus by microdialysis at 20 mg/kg, sc (basal value set at 100%). In kind it is functional. To be noted: route subcutaneous.
Experiment [13] has as its system Rattus norvegicus. Briefly: Increase in 5HT level in Sprague-Dawley rat hypothalamus by microdialysis at 20 mg/kg, po (basal value set at 100%). In kind it is functional.

pKi: −log10 of the molar value. Activity calls are given as the source filed them. No cut-off for these calls is given here.

For orientation: inhibition means the drop in the measured response relative to a control, in per cent. As for `Cc1cc2c(OC[C@@H](O)CN3CC[C@@H](c4cc5ccccc5s4)C[C@@H]3C)cccc2[nH]1`, the figures for the inhibition in experiment [1] and in [3] were 17% and 5%, respectively. Further, the Activity in [2] was determined as 119%.
As usually defined, the pKi is −log10 of the Ki, conventionally taken in molar units. The low end stands for a high Ki, the high end for a low Ki. In experiment [4], `COc1cccc2sc(C3CCN(C[C@H](O)COc4cccc5[nH]c(C)cc45)CC3)cc12` showed a negative-log Ki (pKi) of 7.29.
On to `O[C@H](COc1cccc2[nH]ccc12)CN1CCC(c2cc3ccc(F)cc3s2)CC1`, for which the values for the inhibition in experiment [1] and in experiment [3] were 13% and 9%, respectively. The compound also yielded an Activity in experiment [5] of 130%. The pKi in [4] was 8.70.
In general, ED50 refers to the dose that gives a 50% effect, or the effect in half of the subjects. A low value points to greater potency. `Cc1cccc2sc([C@@H]3CCN(C[C@H](O)COc4cccc5[nH]ccc45)[C@@H](C)C3)cc12`: the inhibition in [1] was found to be 9%; in experiment [3] it was 20%. The ED50 in experiment [6] is greater than 30 mg/kg; in experiment [7] it was 1.65 mg/kg. The same compound returned an Activity in [5] of 210%. The pKi in experiment [4] is 9.36.
In the case of `COc1cccc2sc([C@@H]3CCN(C[C@H](O)COc4cccc5[nH]ccc45)[C@H](C)C3)cc12`, the values for the inhibition in experiment [1] and in [3] were 70% and 28%, respectively.
`CNCCC(Oc1ccc(C(F)(F)F)cc1)c1ccccc1` (stereo not drawn) [FLUOXETINE]: in experiment [8], the result was Active. In experiment [9], the Activity came to 160%.
As for `C[C@H]1C[C@H](c2cc3ccccc3s2)CCN1C[C@H](O)COc1cccc2[nH]ccc12`, the inhibition was -2% in experiment [1] and 1% in [3]. For the same compound, the ED50 in experiment [10] turned out to be 0.28 mg/kg; in [11] it was 2.83 mg/kg. For the same compound, the Activity in experiment [12] is given as 264%. Further, in [4], the negative-log Ki (pKi) is 9.29.
Turning to `COc1cccc2sc([C@H]3CCN(C[C@H](O)COc4cccc5[nH]ccc45)[C@H](C)C3)cc12`, the inhibition was 8% in experiment [1] and 33% in experiment [3]. Further, the Activity in experiment [13] was determined as 330%. For the same compound, the 50% effective dose (ED50) in experiment [6] was greater than 30 mg/kg; in [7] it was greater than 10 mg/kg. Further, the pKi in experiment [4] was 8.94.
Regarding `COc1cccc2sc([C@@H]3CCN(C[C@H](O)COc4cccc5[nH]ccc45)[C@@H](C)C3)cc12`, the inhibition in experiment [1] came out at 11%; in experiment [3] it was 13%. The ED50 worked out at 21.1 mg/kg in experiment [6] and 3.71 mg/kg in [7]. In addition, in [5], the Activity came out at 368%. In experiment [4], this compound gave a negative logarithm of the Ki (pKi) of 9.57.
Consider `COc1cccc2sc([C@@H]3CCN(C[C@H](O)COc4cccc5[nH]c(C)cc45)[C@@H](C)C3)cc12`, for which the inhibition in experiment [1] was 26%; in [3] it was -3%. The same compound showed an Activity in experiment [2] of 713%. Also, the ED50 amounted to 3.2 mg/kg in experiment [6] and 3.79 mg/kg in experiment [7]. The result in experiment [8] was inactive.
On to `Cc1cc2c(OC[C@@H](O)CN3CC[C@@H](c4cc5cc(F)ccc5s4)C[C@@H]3C)cccc2[nH]1`, for which the inhibition came out at 30% in [1] and 6% in [3]. Also, the Activity in experiment [5] is 315%. Further, the negative-log Ki (pKi) in experiment [4] was 9.62.
As to `COc1cccc2sc(C3CCN(C[C@H](O)COc4cccc5[nH]ccc45)CC3)cc12`, the inhibition in experiment [1] was determined as 100%; in experiment [3], 4%. In experiment [4], this compound had a negative-log Ki (pKi) of 7.90.
For `COc1cccc2sc([C@H]3CCN(C[C@H](O)COc4cccc5[nH]ccc45)[C@@H](C)C3)cc12`, the inhibition was 88% in experiment [1] and 40% in experiment [3]. In experiment [4], this compound gave a pKi of 7.87.
With `O[C@H](COc1cccc2[nH]ccc12)CN1CCC(c2cc3ccccc3s2)CC1`, the values for the inhibition in [1] and in experiment [3] were 80% and 6%, respectively. Besides, the pKi in [4] was 7.78.
For the compound `COc1ccc2cc([C@@H]3CCN(C[C@H](O)COc4cccc5[nH]ccc45)[C@@H](C)C3)sc2c1`, the inhibition in experiment [1] amounted to 29%; in experiment [3], 14%. In [10], this compound had an ED50 of 1.07 mg/kg. In experiment [5], the Activity was found to be 140%. The same compound had a negative logarithm of the Ki (pKi) in [4] of 8.96.
`C[C@H]1C[C@H](c2cc3cc(Cl)ccc3s2)CCN1C[C@H](O)COc1cccc2[nH]ccc12`: the inhibition in experiment [1] stood at 39%; in experiment [3] it was 47%. For the same compound, the Activity in experiment [13] is listed as 287%. The median effective dose (ED50) in experiment [6] was determined as 26 mg/kg; in [7], 3.65 mg/kg. The compound also had a negative-log Ki (pKi) in experiment [4] of 9.24.
In the case of `C[C@H]1C[C@H](c2cc3ccc(F)cc3s2)CCN1C[C@H](O)COc1cccc2[nH]ccc12`, the inhibition stood at 8% in [1] and 23% in experiment [3]. In addition, the ED50 in experiment [6] is greater than 30 mg/kg; in experiment [11], 5.08 mg/kg; in experiment [7], 0.69 mg/kg. The Activity in [5] amounted to 479%. In addition, the pKi in [4] is 9.51.
